Results on three compounds are retold here after publication PMC4896643 (Science signaling, 2016).

The test system of data set [1] is ovariectomized C57BL/6 mice. Kind of data set: metabolic effects in ovariectomized mice.
Data set [2] relates to MCF-7 cells. The experiment in a line: Western blot of signaling pathway activation in MCF-7 cells.
Data set [3] has as its system ovariectomized C57BL/6 mice. Kind of data set: gene regulation and signaling pathway activation in tissues in vivo.
In data set [4] the test system is MCF-7 cells. Kind of data set: MCF-7 cell proliferation. Particulars: 6 days, WST assay.
For data set [5], the system named is primary bovine aortic endothelial cells (BAECs). Kind of data set: eNOS activation. It counts as cell-based. Particulars: for eNOS / NOS activity: 15 min.
The test system of data set [6] is ovariectomized mice. Kind of data set: carotid artery reendothelialization after perivascular electric injury.
Data set [7] deals with MCF-7 cells. Kind of data set: ChIP-Seq of ERα, ERK2, pSer5 RNA Pol II.
In data set [8] the test system is MCF-7 cells. Kind of data set: RNA-Seq transcriptional profiling. Particulars: for number of genes regulated: 10 nM E2 or 1 μM PaPE-1, P<0.05, fold change >2.
Data set [9] has as its system ERα-SRC3 interaction. Kind of data set: tr-FRET assay of SRC3 binding to ERα. The format is biochemical.
The test system of data set [10] is ERα-knockout mice. The experiment in a line: effects in ERα-knockout. As to conditions: ERKO mice.
Data set [11] deals with ovariectomized female mice. The experiment in a line: reproductive tissue and thymus effects in ovariectomized mice.

“Also recorded” adds a separate entry of the source.

`C[C@]12CC[C@@H]3c4ccc(O)cc4CC[C@H]3[C@@H]1CC[C@@H]2O` [E2, estradiol]: in [1] (3 weeks), the food consumption entry was “early drop in food intake”; the “liver FASN and SREBP-1c gene expression” value is recorded as “reduced”. Further, the “body weight gain after ovariectomy” value in data set [1] (3 weeks, pellets) is recorded as “suppressed; also recorded: reduced body weight gain”. In data set [1] (3 weeks, perigonadal, perirenal, subcutaneous, mesenteric), the “weight of fat depots” value is listed as “decreased the weight of all of the fat depots examined”. Besides, in data set [1] (end of 3 weeks), the “fat mass (EchoMRI)” value is given as “greatly reduced fat mass; also recorded: reduced fat mass more markedly”; the “lean mass and water mass (EchoMRI)” value was “increased only by E2; also recorded: did increase lean mass and water mass”; the “triglyceride concentrations in blood” value is “decreased triglyceride concentrations in blood”. In [1] (liver, 3 weeks), the “hepatocyte lipid content (Oil Red O)” value is listed as “decreased hepatocyte lipid content”. Further, the “phosphorylation of Ser118 in ERα” value in data set [2] is given as “observed”. For the same compound, in data set [3] (injected, 2h), the “mTOR signaling (S6 phosphorylation) in liver and skeletal muscle” value is listed as “effective in inducing mTOR signaling”; the “signaling pathway stimulation in reproductive tissues (uterus and mammary gland)” value was “stimulated reproductive tissues”. For the same compound, in [3] (pellets, qPCR), the “gene expression changes in uterus” value is “induced gene expression changes in uterus”. Moreover, in [4], the “proliferation of MCF-7 cells” value was “potently stimulated proliferation”. Moreover, in data set [5], the “eNOS / NOS activity” value is “activated by E2”. Moreover, the “eNOS / NOS stimulation with ICI” value in [5] (plus antiestrogen ICI 182,780) was “fully attenuated by ICI”. Further, the “uterine stimulation with ICI” value in [6] (plus antiestrogen ICI) was “blocked uterine stimulation”. The “endothelial repair response with ICI 182,780” value in data set [6] (plus antiestrogen ICI 182,780) is given as “fully prevented”. In addition, in data set [6] (same animals as reendothelialization), the uterine weight result is on record as “greatly elevated by E2”. Moreover, in data set [7], the ERK2 recruitment entry was “caused recruitment of ERK2 to enhancer regions together with ERα” and the “ERα recruitment to chromatin” value was “recruited to chromatin”. Moreover, in [8] (1 μM AZD6244 pretreatment, 4 h), the “regulated genes blocked by MAPK inhibitor AZD6244” value is ~ 23%. In addition, the “regulated genes blocked by mTOR pathway inhibitor PP242” value in data set [8] (1 μM PP242 pretreatment, 4 h) is 40%. In addition, in [8] (4h), the “number of genes regulated” value is listed as ~1500 genes. The “number of genes regulated” value in data set [8] (24h) was “about 3000 genes”. Moreover, the “SRC3 binding to ERα-ligand complex” value in [9] (coactivator titration) is “bound with high affinity”. In data set [10], the blood triglycerides result was “did not decrease blood triglycerides”; the “suppression of liver FASN and SREBP1c gene expression” value was “lost in ERKO mice”; the uterine growth entry is “did not stimulate uterine growth”. Besides, in data set [10] (3 weeks), the “ability to diminish body weight gain after ovariectomy” value is recorded as “lost”. Also, in data set [11], the mammary gland adiposity result is reported as “reduced the mammary gland adiposity”, the “mammary gland ductal morphology” value is reported as “elicited marked ductal growth”, the thymus size entry is given as “induced marked involution of the thymus” and the uterine weight result is given as “effective in increasing growth of the uterus”.
On to `CC/C(=C(\c1ccc(O)cc1)c1ccc(OCCN(C)C)cc1)c1ccccc1` [OH-Tam, trans-hydroxytamoxifen], for which the “reversal of the ER-SRC3 interaction promoted by E2” value in data set [9] is recorded as “reversed the ER-SRC3 interaction”.
With `CC(=O)NCCNC(=O)CCC(C)(c1ccc(O)cc1)c1ccc(O)cc1` [PaPE-4], in data set [5], the “eNOS / NOS activity” value was “increased NOS activity”.
